Experimental data published in patent US12649722B2, “Herbicidal cinnoline derivatives” (SYNGENTA CROP PROTECTION AG, priority 2020, dated 2026).

Tests used:
Assay type in all cases: in vivo
Solarium nigrum (SOLNI) [1] = assay: Pre-emergence Test, SOLNI; settings: 1000 g/ha, evaluated after 13 days
[2] = test system: Amaranthus retoflexus (AMARE); assay: Pre-emergence Test, AMARE; settings: 1000 g/ha, evaluated after 13 days
[3] = test system: Ipornoea hederacea (IPOHE); assay: Pre-emergence Test, IPOHE; settings: 1000 g/ha, evaluated after 13 days
[4] = test system: Echinochloa crus-galli (ECHCG); assay: Pre-emergence Test, ECHCG; settings: 1000 g/ha, evaluated after 13 days
Lolium perenne (LOLPE) [5] = assay: Pre-emergence Test, LOLPE; settings: 1000 g/ha, evaluated after 13 days
Setaria faberi (SETFA) [6] = assay: Pre-emergence Test, SETFA; settings: 1000 g/ha, evaluated after 13 days
Solarium nigrum (SOLNI) [7] = assay: Post-emergence Test, SOLNI; settings: sprayed after 8 days cultivation, 1000 g/ha, evaluated after 13 days
Method: (§1) Seeds of a variety of test species are sown in standard soil in pots (Amaranthus retoflexus (AMARE), Solarium nigrum (SOLNI), Setaria faberi (SETFA), Lolium perenne (LOLPE), Echinochloa crus-galli (ECHCG), Ipornoea hederacea (IPOHE)). After 8 days cultivation under controlled conditions in a glasshouse (at 24° C./16° C., day/night; 14 hours light; 65% humidity), the plants are sprayed with an aqueous spray solution derived from the formulation of the technical active ingredient in acetone/water (50:50) solution containing 0.5% Tween 20 (polyoxyethylene sorbitan monolaurate, CAS RN 9005-64-5). Compounds are applied at 1000 g/ha unless otherwise stated. The test plants are then grown in a glasshouse under controlled conditions in a glasshouse (at 24° C./16° C., day/night; 14 hours light; 65% humidity) and watered twice daily. After 13 days the test is evaluated for the percentage damage caused to the plant. The biological activities are shown in the following table on a five-point scale (5=81-100%; 4=61-80%; 3=41-60%; 2=21-40%; 1=10-20%; 0=0%; −=not tested).

[8] = test system: Amaranthus retoflexus (AMARE); assay: Post-emergence Test, AMARE; settings: sprayed after 8 days cultivation, 1000 g/ha, evaluated after 13 days
Procedure, shortened: (§2)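 Pots sown with AMARE, SOLNI, SETFA, LOLPE, ECHCG, IPOHE, kept in glasshouse (24/16 °C, 14 h light, 65% humidity), sprayed at 1000 g/ha unless stated, in acetone/water 50:50 with 0.5% Tween 20. Damage scored after 13 days on a 0–5 scale (5=81–100%, 0=0%).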

[9] = test system: Ipornoea hederacea (IPOHE); assay: Post-emergence Test, IPOHE; settings: sprayed after 8 days cultivation, 1000 g/ha, evaluated after 13 days
Procedure, shortened: as §2

[10] = test system: Echinochloa crus-galli (ECHCG); assay: Post-emergence Test, ECHCG; settings: sprayed after 8 days cultivation, 1000 g/ha, evaluated after 13 days
Procedure, shortened: as §2

Lolium perenne (LOLPE) [11] = assay: Post-emergence Test, LOLPE; settings: sprayed after 8 days cultivation, 1000 g/ha, evaluated after 13 days
Method: as §1

Setaria faberi (SETFA) [12] = assay: Post-emergence Test, SETFA; settings: sprayed after 8 days cultivation, 1000 g/ha, evaluated after 13 days
Procedure, shortened: as §2

COC(=O)c1nn(-c2ccc(OC(F)(F)F)cc2)c2cccc(-c3ccc(F)cc3)c2c1=O [Compound P6, methyl 5-(4-fluorophenyl)-4-oxo-1-[4-(trifluoromethoxy)phenyl] cinnoline-3-carboxylate]
percentage damage caused to the plant, SOLNI (Solarium nigrum (SOLNI) [1]): 0 (0=0%)
percentage damage caused to the plant, AMARE [2]: 0 (0=0%)
percentage damage caused to the plant, IPOHE [3]: 0 (0=0%)
percentage damage caused to the plant, ECHCG [4]: 0 (0=0%)
percentage damage caused to the plant, LOLPE (Lolium perenne (LOLPE) [5]): 0 (0=0%)
percentage damage caused to the plant, SETFA (Setaria faberi (SETFA) [6]): 0 (0=0%)
percentage damage caused to the plant, SOLNI (Solarium nigrum (SOLNI) [7]): 0 (0=0%)
percentage damage caused to the plant, AMARE [8]: 0 (0=0%)
percentage damage caused to the plant, IPOHE [9]: 0 (0=0%)
percentage damage caused to the plant, ECHCG [10]: 0 (0=0%)
percentage damage caused to the plant, LOLPE (Lolium perenne (LOLPE) [11]): 0 (0=0%)
percentage damage caused to the plant, SETFA (Setaria faberi (SETFA) [12]): 0 (0=0%)

O=C(O)c1nn(-c2ccc(OC(F)(F)F)cc2)c2cccc(-c3ncco3)c2c1=O [Compound P5, 5-oxazol-2-yl-4-oxo-1-[4-(trifluoromethoxy)phenyl] cinnoline-3-carboxylic acid]
percentage damage caused to the plant, SOLNI (Solarium nigrum (SOLNI) [1]): 0 (0=0%)
percentage damage caused to the plant, AMARE [2]: 0 (0=0%)
percentage damage caused to the plant, IPOHE [3]: 0 (0=0%)
percentage damage caused to the plant, ECHCG [4]: 0 (0=0%)
percentage damage caused to the plant, LOLPE (Lolium perenne (LOLPE) [5]): 0 (0=0%)
percentage damage caused to the plant, SETFA (Setaria faberi (SETFA) [6]): 1 (1=10-20%)
percentage damage caused to the plant, SOLNI (Solarium nigrum (SOLNI) [7]): 2 (2=21-40%)
percentage damage caused to the plant, AMARE [8]: 1 (1=10-20%)
percentage damage caused to the plant, IPOHE [9]: 0 (0=0%)
percentage damage caused to the plant, ECHCG [10]: 3 (3=41-60%)
percentage damage caused to the plant, LOLPE (Lolium perenne (LOLPE) [11]): 2 (2=21-40%)
percentage damage caused to the plant, SETFA (Setaria faberi (SETFA) [12]): 4 (4=61-80%)

CO/N=C(\C)c1cccc2c1c(=O)c(C(=O)OC)nn2-c1ccc(OC(F)(F)F)cc1 [Compound P1, methyl 5-[(E)-N-methoxy-C-methyl-carbonimidoyl]-4-oxo-1-[4-(trifluoromethoxy)phenyl] cinnoline-3-carboxylate]
percentage damage caused to the plant, SOLNI (Solarium nigrum (SOLNI) [1]): 1 (1=10-20%)
percentage damage caused to the plant, AMARE [2]: 1 (1=10-20%)
percentage damage caused to the plant, IPOHE [3]: 1 (1=10-20%)
percentage damage caused to the plant, ECHCG [4]: 5 (5=81-100%)
percentage damage caused to the plant, LOLPE (Lolium perenne (LOLPE) [5]): 4 (4=61-80%)
percentage damage caused to the plant, SETFA (Setaria faberi (SETFA) [6]): 5 (5=81-100%)
percentage damage caused to the plant, SOLNI (Solarium nigrum (SOLNI) [7]): 3 (3=41-60%)
percentage damage caused to the plant, AMARE [8]: 2 (2=21-40%)
percentage damage caused to the plant, IPOHE [9]: 2 (2=21-40%)
percentage damage caused to the plant, ECHCG [10]: 5 (5=81-100%)
percentage damage caused to the plant, LOLPE (Lolium perenne (LOLPE) [11]): 4 (4=61-80%)
percentage damage caused to the plant, SETFA (Setaria faberi (SETFA) [12]): 4 (4=61-80%)

CC(=O)c1cccc2c1c(=O)c(C(=O)O)nn2-c1ccc(OC(F)(F)F)cc1 [Compound P10, 5-acetyl-4-oxo-1-[4-(trifluoromethoxy)phenyl] cinnoline-3-carboxylic acid]
percentage damage caused to the plant, SOLNI (Solarium nigrum (SOLNI) [1]): 1 (1=10-20%)
percentage damage caused to the plant, AMARE [2]: 1 (1=10-20%)
percentage damage caused to the plant, IPOHE [3]: 0 (0=0%)
percentage damage caused to the plant, ECHCG [4]: 5 (5=81-100%)
percentage damage caused to the plant, LOLPE (Lolium perenne (LOLPE) [5]): 4 (4=61-80%)
percentage damage caused to the plant, SETFA (Setaria faberi (SETFA) [6]): 5 (5=81-100%)
percentage damage caused to the plant, SOLNI (Solarium nigrum (SOLNI) [7]): 4 (4=61-80%)
percentage damage caused to the plant, AMARE [8]: 1 (1=10-20%)
percentage damage caused to the plant, IPOHE [9]: 4 (4=61-80%)
percentage damage caused to the plant, ECHCG [10]: 4 (4=61-80%)
percentage damage caused to the plant, LOLPE (Lolium perenne (LOLPE) [11]): 4 (4=61-80%)
percentage damage caused to the plant, SETFA (Setaria faberi (SETFA) [12]): 4 (4=61-80%)
